Literature values, collected in PubChem BioAssay AID1259409 (Chemical Carcinogenesis Research Information System (CCRIS), 2018).

Tested on: rodent chemically induced tumor inhibition, incidence and multiplicity
Test: CCRIS tumor inhibitor studies
Settings: Route [Inhibitor]: ORAL, Species: RAT, Promoter: NONE USED

O=[Se](O)O
tumour outcome (control, treated, inhibition, significance) (Carcinogen: 7,12-DIMETHYLBENZ[A]ANTHRACENE, 57-97-6, Dose [Inhibitor]: 5 PPM IN 25% CORN OIL DIET DAILY FOR 4 WK STARTING 2 WK BEFORE CARCINOGEN TREATMENT AND CONTINUING FOR 2 WK POST CARCINO, Strain/Sex: SPRAGUE-DAWLEY/FEMALE, Target Tissue: Type of Lesion: MAMMARY GLAND: ADENOCARCINOMA, Dose [Carcinogen]: 10 MG ONCE AT 50 D OF AGE): 97%, 72%, 26%, p<0.02
tumour outcome (control, treated, inhibition, significance) (Carcinogen: 7,12-DIMETHYLBENZ[A]ANTHRACENE, 57-97-6, Dose [Inhibitor]: 5 PPM IN 25% CORN OIL DIET DAILY FOR 10 WK STARTING 2 WK AFTER CARCINOGEN TREATMENT (STUDY DURATION: 24 WK), Strain/Sex: SPRAGUE-DAWLEY/FEMALE, Target Tissue: Type of Lesion: MAMMARY GLAND: ADENOCARCINOMA, Dose [Carcinogen]: 10 MG ONCE AT 50 D OF AGE): 97%, 86%, 11%, not significant
tumour outcome (control, treated, inhibition, significance) (Carcinogen: 7,12-DIMETHYLBENZ[A]ANTHRACENE, 57-97-6, Dose [Inhibitor]: 5 PPM IN 25% CORN OIL DIET DAILY FOR 12 WK STARTING 12 WK AFTER CARCINOGEN TREATMENT (STUDY DURATION: 24 WK), Strain/Sex: SPRAGUE-DAWLEY/FEMALE, Target Tissue: Type of Lesion: MAMMARY GLAND: ADENOCARCINOMA, Dose [Carcinogen]: 10 MG ONCE AT 50 D OF AGE): 97%, 91%, 6%, not significant
tumour outcome (control, treated, inhibition, significance) (Carcinogen: 7,12-DIMETHYLBENZ[A]ANTHRACENE, 57-97-6, Dose [Inhibitor]: 5 PPM IN 25% CORN OIL DIET DAILY FOR 14 WK STARTING 2 WK BEFORE CARCINOGEN TREATMENT (STUDY DURATION: 26 WK), Strain/Sex: SPRAGUE-DAWLEY/FEMALE, Target Tissue: Type of Lesion: MAMMARY GLAND: ADENOCARCINOMA, Dose [Carcinogen]: 10 MG ONCE AT 50 D OF AGE): 97%, 57%, 41%, p<0.02
tumour outcome (control, treated, inhibition, significance) (Carcinogen: 7,12-DIMETHYLBENZ[A]ANTHRACENE, 57-97-6, Dose [Inhibitor]: 5 PPM IN 25% CORN OIL DIET DAILY FOR 22 WK STARTING 2 WK AFTER CARCINOGEN TREATMENT AND CONTINUING FOR DURATION OF STUDY, Strain/Sex: SPRAGUE-DAWLEY/FEMALE, Target Tissue: Type of Lesion: MAMMARY GLAND: ADENOCARCINOMA, Dose [Carcinogen]: 10 MG ONCE AT 50 D OF AGE): 97%, 69%, 26%, p<0.02
tumour outcome (control, treated, inhibition, significance) (Carcinogen: 7,12-DIMETHYLBENZ[A]ANTHRACENE, 57-97-6, Dose [Inhibitor]: 5 PPM IN 25% CORN OIL DIET DAILY FOR 26 WK STARTING 2 WK BEFORE CARCINOGEN TREATMENT AND CONTINUING FOR DURATION OF STUD, Strain/Sex: SPRAGUE-DAWLEY/FEMALE, Target Tissue: Type of Lesion: MAMMARY GLAND: ADENOCARCINOMA, Dose [Carcinogen]: 10 MG ONCE AT 50 D OF AGE): 97%, 46%, 53%, p<0.02
tumour outcome (control, treated, inhibition, significance) (Carcinogen: AZOXYMETHANE, 25843-45-2, Dose [Inhibitor]: 0.5 PPM IN DIET BEGINNING 1 WK POST CARCINOGEN DOSE FOR DURATION OF STUDY (STUDY DURATION: 39 WK), Strain/Sex: F344/MALE, Target Tissue: Type of Lesion: COLON: ADENOCARCINOMA, Dose [Carcinogen]: 15 MG/KG BW 1/WK FOR 2 WK): 10/27 (37%), 9/27 (33%), 11%, not significant
tumour outcome (control, treated, inhibition, significance) (Carcinogen: AZOXYMETHANE, 25843-45-2, Dose [Inhibitor]: 0.5 PPM IN DIET BEGINNING 1 WK POST CARCINOGEN DOSE FOR DURATION OF STUDY (STUDY DURATION: 39 WK), Strain/Sex: F344/MALE, Target Tissue: Type of Lesion: COLON: ADENOMA, Dose [Carcinogen]: 15 MG/KG BW 1/WK FOR 2 WK): 16/27 (59%), 20/27 (74%), -25%, not significant
tumour outcome (control, treated, inhibition, significance) (Carcinogen: AZOXYMETHANE, 25843-45-2, Dose [Inhibitor]: 0.5 PPM IN DIET BEGINNING 1 WK POST CARCINOGEN DOSE FOR DURATION OF STUDY (STUDY DURATION: 39 WK), Strain/Sex: F344/MALE, Target Tissue: Type of Lesion: DUODENUM: ADENOCARCINOMA, Dose [Carcinogen]: 15 MG/KG BW 1/WK FOR 2 WK): 7/27 (26%), 7/27 (26%), 0%, not significant
tumour outcome (control, treated, inhibition, significance) (Carcinogen: AZOXYMETHANE, 25843-45-2, Dose [Inhibitor]: 0.5 PPM IN DIET BEGINNING 1 WK POST CARCINOGEN DOSE FOR DURATION OF STUDY (STUDY DURATION: 39 WK), Strain/Sex: F344/MALE, Target Tissue: Type of Lesion: DUODENUM: ADENOMA, Dose [Carcinogen]: 15 MG/KG BW 1/WK FOR 2 WK): 3/27 (11%), 4/27 (15%), -36%, not significant
tumour outcome (control, treated, inhibition, significance) (Carcinogen: AZOXYMETHANE, 25843-45-2, Dose [Inhibitor]: 0.5 PPM IN DIET BEGINNING 3 WK PRIOR TO CARCINOGEN DOSE AND CONTINUING FOR 1 WK POST CARCINOGEN DOSE (STUDY DURATION: 39, Strain/Sex: F344/MALE, Target Tissue: Type of Lesion: COLON: ADENOMA, Dose [Carcinogen]: 15 MG/KG BW 1/WK FOR 2 WK): 16/27 (59%), 16/27 (59%), 0%, not significant
tumour outcome (control, treated, inhibition, significance) (Carcinogen: AZOXYMETHANE, 25843-45-2, Dose [Inhibitor]: 0.5 PPM IN DIET BEGINNING 3 WK PRIOR TO CARCINOGEN DOSE AND CONTINUING FOR 1 WK POST CARCINOGEN DOSE (STUDY DURATION: 39, Strain/Sex: F344/MALE, Target Tissue: Type of Lesion: DUODENUM: ADENOCARCINOMA, Dose [Carcinogen]: 15 MG/KG BW 1/WK FOR 2 WK): 7/27 (26%), 7/27 (26%), 0%, not significant
tumour outcome (control, treated, inhibition, significance) (Carcinogen: AZOXYMETHANE, 25843-45-2, Dose [Inhibitor]: 0.5 PPM IN DIET BEGINNING 3 WK PRIOR TO CARCINOGEN DOSE AND CONTINUING FOR 1 WK POST CARCINOGEN DOSE (STUDY DURATION: 39, Strain/Sex: F344/MALE, Target Tissue: Type of Lesion: DUODENUM: ADENOMA, Dose [Carcinogen]: 15 MG/KG BW 1/WK FOR 2 WK): 3/27 (11%), 2/27 (7%), 36%, not calculated
tumour outcome (control, treated, inhibition, significance) (Carcinogen: AZOXYMETHANE, 25843-45-2, Dose [Inhibitor]: 2.5 PPM IN DIET BEGINNING 1 WK POST CARCINOGEN DOSE FOR DURATION OF STUDY (STUDY DURATION: 39 WK), Strain/Sex: F344/MALE, Target Tissue: Type of Lesion: COLON: ADENOCARCINOMA, Dose [Carcinogen]: 15 MG/KG BW 1/WK FOR 2 WK): 10/27 (37%), 1/27 (4%), 89%, p<0.05
tumour outcome (control, treated, inhibition, significance) (Carcinogen: AZOXYMETHANE, 25843-45-2, Dose [Inhibitor]: 2.5 PPM IN DIET BEGINNING 1 WK POST CARCINOGEN DOSE FOR DURATION OF STUDY (STUDY DURATION: 39 WK), Strain/Sex: F344/MALE, Target Tissue: Type of Lesion: COLON: ADENOMA, Dose [Carcinogen]: 15 MG/KG BW 1/WK FOR 2 WK): 16/27 (59%), 12/27 (44%), 25%, not significant
